Consider one compound from patent publication US6057117A, “Identification and use of selective inhibitors of glycogen synthase kinase 3” (Chiron Corporation, priority 1999, dated 2000).

Format in all cases: cell-based
Experiment [1] deals with HepG2 liver cells. Put plainly: Insulin- and glucose-stimulated glycogen synthase activity in stable tissue culture cells. Conditions: insulin and glucose added, in the presence of the inhibitor. From the text: (§1) In these assays measurement of the effectiveness of a given inhibitor is accomplished by the effect of inhibitors on glycogen synthase activity as described in Thomas et al, Anal. Biochem. 25:486-99 (1968), glucose uptake as described in Begun and Ragolia Endocrinology 137: 2441-6 (1996), Claraldi et al, J. Clin. Invest. 96:2820-27 (1995), Hara et al, PNAS 91:7415-19 (1994), Robinson and James, Am. J. Physiol. 263:E383-93(1992), and Sasoaka et al, JBC 270: 10885-92 (1995) and glucose incorporation into glycogen as described in Begun and Ragolia Endocrinology 137: 2441-6 (1996), Sasoaka et al, JBC 270: 10885-92 (1995), and Takata et al, JBC 267:9065-70 (1992).
(§2) Assays for glucose uptake and glycogen synthesis can be conducted as described for cell-based assays generally. To measure glucose uptake and glycogen synthesis, a variety of stable tissue culture cell lines that respond to insulin stimulation by increasing the synthesis of glycogen and increasing the rate of glucose uptake from the medium can be used. These include HepG2 liver cells, CHO-IR cells, and Hirc cells. Under appropriate conditions the addition of insulin and glucose to HepG2 cells stimulates glycogen synthase activity and this stimulation is potentiated in the presence of the GSK3 inhibitor iodotubercidin.

Experiment [2] relates to HepG2 liver cells. Briefly: Glucose uptake in stable tissue culture cells.
Source text: as §1, §2

Experiment [3] deals with Drosophila cells. Briefly: β-catenin stabilization assay of intracellular GSK3 activity (western blot). As to conditions: added to Drosophila cells; detected on a western blot. The source says: Other assays that test functional GSK3 also provide a further test of intracellular GSK3 activity. These assays rely on the ability to observe indirect consequences of GSK3 activity within cells. An example of such an assay involves β-catenin stabilization. Cellular GSK3 activity leads to the destabilization of cytosolic pools of β-catenin in certain types of cell. Consequently, inhibition of GSK3 results in β-catenin stabilization and accumulation, which can be detected on a western blot. […] Similarly, LiCl in the cell culture medium causes an increase in intracellular β-catenin levels as described in Stambolic et al, Cur. Biol. 6(12):1664-8 (1996).
In general terms: A western blot detects proteins with antibodies after separation by electrophoresis.

In the case of `Nc1ncnc2c1c(I)cn2[C@@H]1O[C@H](CO)[C@@H](O)[C@H]1O` [iodotubercidin], the “stimulation of glycogen synthase activity by insulin and glucose” value in experiment [1] is recorded as “potentiated”. The “response of glucose uptake to insulin, glucose and inhibitor” value in experiment [2] is “as much as six fold”. In addition, the β-catenin accumulation result in experiment [3] is “leads to β-catenin accumulation”.
